As a reminder, the pKa is the negative logarithm of the acid dissociation constant.

Structures are written as SMILES.

A short description of the data set: physchem. As to conditions: human.

As to `COc1ccc([C@H](N[C@@H]2CC[C@@H](C(=O)N3CCC(C(=O)N4CCCC4)(c4ccccc4)CC3)C(C)(C)C2)C(F)(F)F)cc1`, the pKa was 4.24.

In turn, `COc1ccc([C@@H](C)N[C@@H]2CC[C@@H](C(=O)N3CCC(C(=O)N4CCCC4)(c4ccccc4)CC3)C(C)(C)C2)cc1` yielded a pKa of 10.2.

For the origin of these results see ChEMBL document CHEMBL1153458, “Design, synthesis and evaluation of a novel cyclohexanamine class of neuropeptide Y Y1 receptor antagonists” (Bioorg Med Chem Lett, 2009).
